Measured values taken from US7041639B2, “Depsipeptide and congeners thereof for use as immunosuppressants” (XCYTE Therapies, Inc., priority 1999, dated 2006).

Assays:
T-cells = assay: Cell survival / viability (sub-G1 DNA, membrane integrity, propidium iodide exclusion); assay type: cell-based, human
Procedure: Cells are stimulated by three different methodologies 1) Dynabeads (M-450) covalently coupled to anti-CD3 (OKT-3) and anti-CD28 (9.3) antibodies (3×28 beads) according to the manufacturer's instructions (Dynal), 3 beads/cell, 2) Ionomycin (Calbiochem, La Jolla, Calif.) (100 ng/ml) and phorbol 12-myristate-13-acetate (PMA) (Calbiochem) (10 ng/ml), 3) allogeneic dendritic cells (25,000 dendritic cells/200,000 CD4 cells). All cells are stimulated at a concentration of 1×10^6 cells/ml. Cells are incubated with compounds of structure (I) (e.g., FR901228) (NCI, Bethesda, Md.) for 1 to 2 hours prior to stimulation as outlined above. Proliferation assays are conducted in quadruplicate in 96 well flat-bottom plates. Cells are stimulated at 1×10^6 cells/ml in a final volume of 200 μl. Proliferation is measured by MTT assay (MTT assay kit, Chemicon International Inc., Temecula, Calif.) at day 3 (stimulation method 1 and 2) or at day 6 (stimulation method 3), and results are presented as mean value of quadruplicates. PBL cultures or purified CD4 cell cultures are stimulated with 3×28 beads, ionomycin/PMA or allogenic dendritic cells. […] Further, […] cell survival is not affected by FR901228, as assessed by sub-G1 DNA measurement and integrity of the cell membrane (FIG. 5D). […]

[1] = system: CD154 promoter in Jurkat T-cells; assay: GFP reporter under control of the CD154 promoter; assay type: cell-based; details: 24 hours 3×28 beads; 0, 10, 50, 100 ng/ml; FIG. 11
Procedure: In this experiment Jurkat T-cells were stabily transfected with a vector construct (p-EGFP1, Clonetech) wherein the nucleotide sequence encoding green fluorescent protein was operably linked to the CD154 promoter cloned from Jurkat cells. Following selection of cells containing the vector of interest, the cells were subjected to stimulation for 24 hours with 3×28 beads in the presence of varying concentrations (0 to 100 ng/ml) of FR901228. Fluorescence was then detected using flow cytometry.

bulk phosphorylation = assay: Phosphotyrosine Western blots; assay type: cell-based
Description: FR901228 has a number of features that aid its ability to act as a potent immunosuppressant. […] Thus, these observations indicate that compounds of structure (I) affect the T-cell activation pathway at multiple points, thus allowing activation to proceed into early stages, such as phosphorylation, but preventing subsequent events of activation and proliferation.

C/C=C1\NC(=O)[C@H]2CSSCC/C=C/[C@H](CC(=O)N[C@H](C(C)C)C(=O)N2)OC(=O)[C@H](C(C)C)NC1=O [FR901228]
cell survival by sub-G1 DNA measurement and integrity of the cell membrane (T-cells; FIG. 5D): not affected
cell viability by propidium iodide (PI) exclusion (T-cells; concentrations up to 100 ng/ml): not significantly affected
induction of GFP expression under CD154 promoter [1]: only cells having 0 ng/ml of FR901228 showed induction of GFP expression
bulk phosphorylation (bulk phosphorylation): does not affect
